From US8796320B2, “1,3,4-Oxadiazole-2-carboxamide compound” (General Incorporated Association Pharma Valley Project …, priority 2009, dated 2014)

Columns and labels:
STAT3 = STAT3 transcription inhibition test (reporter gene method); assay type: cell-based; details: compound at 100 μM, STAT3 reporter HeLa stable cell line, oncostatin M 10 ng/mL, 4 hours; for inhibition at 100 µM: Homo sapiens, read-out: STAT3 transcription inhibitory activity (%)
Experimental: The inhibition of STAT3 transcription was evaluated by using STAT3 reporter HeLa stable cell line (Panomics Inc., catalog No. RC0003), a cell line for the reporter gene method, and performing the following method according to the appendix included therein.
STAT3, reporter HeLa stable cell line subcultured and maintained in a Dulbecco's modified Eagle's medium (DMEM) containing 10% fetal bovine serum, 100 units/mL penicillin, and 100 μg/mL streptomycin was inoculated at a concentration of 40000 cells/well to a 96-well plate (white) and attached to the plate by overnight incubation at 37° C. under 5% CO2. After addition of each evaluation compound adjusted to various concentrations (adjusted with a DMSO solution), the cells were precultured for 1 hour. Then, oncostatin M for activating STAT3 was added at a final concentration 10 ng/mL, and the cells were further cultured at 37° C. under 5% CO2 for 4 hours. Luciferase activity derived from the cells was determined using Steady-Glo Luciferase Assay System (Promega Corp.), and STAT3 transcriptional activity scores were calculated according to the following formula: STAT3 transcriptional activity score (%)=100×(Lchem−L0)/(LDMSO−L0) • L0: luminescence intensity obtained without stimulation with oncostatin M • Lchem: luminescence intensity obtained by the addition of a test sample • LDMSO: luminescence intensity obtained by the addition of only a solvent for dissolving a test sample
The test results were indicated in the rate of inhibition of STAT3 transcription by each compound at a concentration of 100 μM.

MDA-MB-468 = MDA-MB-468 cell growth inhibitory activity; assay type: cell-based; details: Homo sapiens; compound at 20 μM; MDA-MB-468, 72 hours
Experimental: MDA-MB-468 diluted with phenol red-free DMEM/F-12 (GIBCO; 10% FBS, 20 units/ml penicillin/streptomycin) was inoculated at a concentration of 2000 cells/well to a 96-well plate (Greiner Bio-One) and cultured overnight at 37° C. in the presence of 5% CO2. Then, a test sample solution (containing 2 (v/v)% DMSO) adjusted to 10 μM was added thereto at a concentration of 10 μL/well and contacted with the cells at 37° C. for 72 hours in the presence of 5% CO2. Each well was washed three times with a medium. Then, after addition of 100 μL/well of a medium and 20 μL/well of CellTiter 96 AQueous, One Solution Reagent (Promega Corp.), the cells were incubated at 37° C. for 2 hours in the presence of 5% CO2. Absorbance at 495 nm was measured using Multiplate reader (Molecular Devices, Inc.), and the rate of inhibition of cell growth was calculated according to the following formula: Rate of inhibition of cell growth (%)=100−100×(Abschem−bkgd)/(AbsDMSO−bkgd) • Abschem: absorbance obtained by the addition of a test sample • AbsDMSO: absorbance obtained by the addition of only a solvent for test sample dissolution • bkgd: absorbance obtained by the addition of CellTiter 96 AQueous One Solution Reagent to a medium for cell culture
The test results were indicated in the rate of inhibition of cell growth by each compound at a concentration of 20 μM.

Structure (SMILES) | inhibition at 100 µM (STAT3) | inhibition at 20 µM (MDA-MB-468) | STAT3 transcription inhibitory activity (%) (STAT3)
O=C(Nc1nnc(-c2ccco2)o1)c1cccc(-c2ccccc2)c1 [Compound Ia-1, N-[5-(2-Furyl)-1,3,4-oxadiazol-2-yl]-3-biphenylcarboxamide] | 60% | – | –
O=C(Nc1nnc(-c2ccco2)o1)c1cccc(-c2cccc([N+](=O)[O-])c2)c1 [Compound Ia-5, N-[5-(2-Furyl)-1,3,4-oxadiazol-2-yl]-3′-nitro-3-biphenylcarboxamide] | 98% | 88% | –
O=C(Nc1nnc(-c2ccco2)o1)c1cccc(-c2ccc(F)cc2)c1 [Compound Ia-10, 4′-Fluoro-N-[5-(2-furyl)-1,3,4-oxadiazol-2-yl]-3-biphenylcarboxamide] | 97% | – | –
Cc1ccc(-c2cccc(C(=O)Nc3nnc(-c4ccco4)o3)c2)cc1 [Compound Ia-12, N-[5-(2-Furyl)-1,3,4-oxadiazol-2-yl]-4′-methyl-3-biphenylcarboxamide] | 83% | 61% | –
COc1ccc(-c2cccc(C(=O)Nc3nnc(-c4ccco4)o3)c2)cc1 [Compound Ia-16, N-[5-(2-Furyl)-1,3,4-oxadiazol-2-yl]-4′-methoxy-3-biphenylcarboxamide] | 57% | – | –
O=C(Nc1nnc(-c2ccco2)o1)c1cccc(-c2ccc(C(=O)c3ccccc3)cc2)c1 [Compound Ia-19, 4′-Benzoyl-N-[5-(2-furyl)-1,3,4-oxadiazol-2-yl]-3-biphenylcarboxamide] | 55% | 94% | –
O=C(Nc1nnc(-c2ccco2)o1)c1cccc(-c2ccc([N+](=O)[O-])cc2)c1 [Compound Ia-24, N-[5-(2-Furyl)-1,3,4-oxadiazol-2-yl]-4′-nitro-3-biphenylcarboxamide] | 94% | 97% | –
Cc1cc(C#N)ccc1-c1cccc(C(=O)Nc2nnc(-c3ccco3)o2)c1 [Compound Ia-29, 4′-Cyano-N-[5-(2-furyl)-1,3,4-oxadiazol-2-yl]-2′-methyl-3-biphenylcarboxamide] | 81% | 87% | –
O=C(Nc1nnc(-c2ccco2)o1)c1cccc(-c2ccc3ccccc3c2)c1 [Compound Ia-33, N-[5-(2-Furyl)-1,3,4-oxadiazol-2-yl]-3-(2-naphthyl)benzenecarboxamide] | 90% | 98% | –
Cc1ccc(-c2cccc(C(=O)Nc3nnc(-c4ccco4)o3)c2)o1 [Compound Ia-34, N-[5-(2-Furyl)-1,3,4-oxadiazol-2-yl]-3-(5-methyl-2-furyl)benzenecarboxamide] | 78% | – | –
O=C(Nc1nnc(-c2ccco2)o1)c1cccc(-c2ccc3c(c2)OCO3)c1 [Compound Ia-42, N-[5-(2-Furyl)-1,3,4-oxadiazol-2-yl]-3-(3,4-methylenedioxyphenyl)benzenecarboxamide] | 88% | – | –
O=C(Nc1nnc(-c2ccco2)o1)c1cccc(-c2ccc3sccc3c2)c1 [Compound Ia-47, 3-(5-Benzothienyl)-N-[5-(2-furyl)-1,3,4-oxadiazol-2-yl]benzenecarboxamide] | 58% | 53% | –
Cn1ccc2cc(-c3cc(F)cc(C(=O)Nc4nnc(-c5ccco5)o4)c3)ccc21 [Compound Ia-52, 5-Fluoro-N-[5-(2-furyl)-1,3,4-oxadiazol-2-yl]-3-(1-methyl-5-indolyl)benzenecarboxamide] | 71% | 91% | –
O=C(Nc1nnc(-c2ccco2)o1)c1cc(-c2ccc(Cl)cc2)nc(-c2ccc(Br)cc2)c1 [Compound Ia-56, 2-(4-Bromophenyl)-6-(4-chlorophenyl)-N-[5-(2-furyl)-1,3,4-oxadiazol-2-yl]-4-pyridinecarboxamide] | 87% | 61% | –
C[Si](C)(C)c1ccc(-c2cccc(C(=O)Nc3nnc(-c4ccco4)o3)c2)cc1 [Compound Ia-62, N-[5-(2-Furyl)-1,3,4-oxadiazol-2-yl]-4′-trimethylsilyl-3-biphenylcarboxamide] | 76% | 71% | –
O=C(Nc1nnc(-c2ccco2)o1)c1cccc(-c2ccc(Oc3ccccc3)cc2)c1 [Compound Ia-66, N-[5-(2-Furyl)-1,3,4-oxadiazol-2-yl]-4′-phenoxy-3-biphenylcarboxamide] | 58% | 59% | –
COC(=O)c1ccc(-c2cccc(C(=O)Nc3nnc(-c4ccco4)o3)c2)cc1 [Compound Ia-69, N-[5-(2-Furyl)-1,3,4-oxadiazol-2-yl]-4′-methoxycarbonyl-3-biphenylcarboxamide] | 53% | 69% | –
O=C(Nc1nnc(-c2ccco2)o1)c1cccc(-c2ccc(-c3ccc(Cl)cc3)cc2)c1 [Compound Ia-77, 4″-Chloro-N-[5-(2-furyl)-1,3,4-oxadiazol-2-yl]-3-(p-terphenyl)carboxamide] | 80% | 76% | –
CC(C)Oc1ccc(-c2ccc(-c3cccc(C(=O)Nc4nnc(-c5ccco5)o4)c3)cc2)cc1 [Compound Ia-81, N-[5-(2-Furyl)-1,3,4-oxadiazol-2-yl]-4″-isopropoxy-3-(p-terphenyl)carboxamide] | 63% | 78% | –
O=C(Nc1nnc(-c2ccco2)o1)c1cccc(-c2ccc(-c3cccc4ccccc34)cc2)c1 [Compound Ia-82, N-[5-(2-Furyl)-1,3,4-oxadiazol-2-yl]-4′-(1-naphthyl)-3-biphenylcarboxamide] | 54% | 75% | –
O=C(Nc1nnc(-c2ccco2)o1)c1cccc(-c2ccc(CCN3CCOCC3)cc2)c1 [Compound Ia-90, N-[5-(2-Furyl)-1,3,4-oxadiazol-2-yl]-4′-(2-morpholinoethyl)-3-biphenylcarboxamide] | 97% | – | –
O=C(Nc1nnc(-c2ccco2)o1)c1ccc(-c2cccc(Cl)c2)o1 [Compound Ic-4, 5-(3-Chlorophenyl)-N-[5-(2-furyl)-1,3,4-oxadiazol-2-yl]-2-furancarboxamide] | 81% | – | –
CCOC(=O)c1ccc(-c2ccc(C(=O)Nc3nnc(-c4ccco4)o3)o2)cc1 [Compound Ic-12, 5-(4-Ethoxycarbonylphenyl)-N-[5-(2-furyl)-1,3,4-oxadiazol-2-yl]-2-furancarboxamide] | 73% | – | –
O=C(Nc1nnc(-c2ccco2)o1)c1ccc(-c2ccc([N+](=O)[O-])cc2Cl)o1 [Compound Ic-14, 5-(2-Chloro-4-nitrophenyl)-N-[5-(2-furyl)-1,3,4-oxadiazol-2-yl]-2-furancarboxamide] | 51% | – | –
O=C(Nc1nnc(-c2ccco2)o1)c1ccc(-c2cc([N+](=O)[O-])ccc2Cl)o1 [Compound Ic-19, 5-(2-Chloro-5-nitrophenyl)-N-[5-(2-furyl)-1,3,4-oxadiazol-2-yl]-2-furancarboxamide] | 56% | – | –
O=C(Nc1nnc(-c2ccco2)o1)c1ccc(-c2cc(Cl)cc(Cl)c2)o1 [Compound Ic-21, 5-(3,5-Dichlorophenyl)-N-[5-(2-furyl)-1,3,4-oxadiazol-2-yl]-2-furancarboxamide] | 64% | – | –
Cc1oc(-c2ccccc2)cc1C(=O)Nc1nnc(-c2ccco2)o1 [Compound Ic-22, N-[5-(2-Furyl)-1,3,4-oxadiazol-2-yl]-2-methyl-5-phenyl-3-furancarboxamide] | 65% | – | –
O=C(Nc1nnc(-c2ccco2)o1)c1nc(-c2ccc(F)cc2)n2c1CCCCC2 [Compound Ic-26] | – | – | 58%
